Experiments:
[1] = test system: LPS-induced neutrophil accumulation in BALF; assay: LPS-induced neutrophilia in the mouse: duration of action; assay type: in vivo; conditions: intra tracheal dosing, 12 or more hours of pre-dosing, BALF 8 h after LPS
Protocol: Non-fasted mice were dosed by the intra tracheal route with either vehicle, or the test substance at the time points (“pre-dose”) indicated with respect to the start of LPS treatment. At T=0, mice were placed into an exposure chamber and exposed to LPS. Eight hours after LPS challenge, animals were under anesthetized, the trachea cannulated and BALF extracted by infusing and withdrawing 1 ml of PBS into the lungs via a tracheal catheter. Total and differential white cell counts in the BALF samples were measured using a Neubaur haemocytometer. Cytospin smears of the BALF samples were prepared by centrifugation at 200 rpm for 5 min at room temperature and stained using a DiffQuik stain system (Dade Behring). Cells were counted using oil immersion microscopy.
Data for neutrophil numbers is reported as total and differential number (test substance relative to vehicle) of cells per mL of BALF, mean±S.E.M. (n=8).

[2] = test system: differentiated U937 cells; assay: MTT assay in differentiated U937 cells; assay type: cell-based, human; set-up: key: Negative: no significant toxic effect observed in MTT assay
Protocol: Differentiated U937 cells were pre-incubated with compound for 4 hrs in 5% FCS or 10% FCS for 24 hrs and 72 hr. […] After 1 hr incubation, the media were removed, 200 ul of DMSO added to each well and the plates were shaken lightly for 1 h prior to reading the absorbance at 550 nm. The percentage loss of cell viability was calculated for each well relative to vehicle (0.5% DMSO)-treatment. Consequently an apparent increase in cell viability for drug treatment relative to vehicle is tabulated as a negative percentage.

COCC(=O)Nc1cc(COc2ccc(NC(=O)Nc3cc(C(C)(C)C)nn3-c3ccc(C)cc3)c3ccccc23)ccn1 [Example 1, N-(4-((4-(3-(3-tert-Butyl-1-p-tolyl-1H-pyrazol-5-yl)ureido)naphthalen-1-yloxy)methyl)pyridin-2-yl)-2-methoxyacetamide]
inhibition of LPS-induced neutrophil accumulation [1]: significant inhibition | Differentiated U937 cells MTT Assay 4, 24 h (10 μg/ml) [2]: Negative^2

From patent publication US8975285B2, “P38 MAP kinase inhibitors” (Respivert Ltd., priority 2008, dated 2015)
